Results published in patent publication US20230312550A1, “N-(2-(4-CYANOTHIAZOLIDIN-3-YL)-2-OXOETHYL)-QUINOLINE-4-CARBOXAMIDES” (AstraZeneca AB, priority 2020, published 2023).
In brackets after ≈: the same amount, converted by molar mass.

Tests used:
[1] = Metabolic stability in rat hepatocytes (rHep); details: n = 1 or geometric mean of n = 2-3
[2] = Metabolic stability in human liver microsomes (HLM); details: human
Method: Metabolic stability in HLM was measured as described in J Comput Aided Mol Des 2015, 29, 795.

Kinetic solubility = details: kinetic from dmso stock
Method: Kinetic solubility was measured as described in Comput Aided Mol Des 2015, 29, 795.

[3] = target: human Fibroblast activation protein alpha (hFAP) (Homo sapiens (Human), UniProt Q12884); experiment: hFAP inhibition assay (tight binders); type: biochemical; details: Ala-Pro-AMC 20 μM, n = 1 or geometric mean n = 2-6; also: hFAP 2.4 pM
Method: The plates were read on a PHERAstar® reader with excitation 340 nm and emission 460 nm. Data were analyzed in Genedata Screener®. IC50 values were determined by plotting % inhibition versus log compound concentration and using a one site dose response model.

[4] = target: Prolyl endopeptidase, Prolyl Oligopeptidase (hPREP) (Homo sapiens (Human), UniProt P48147); experiment: hPrep inhibition assay; type: biochemical; details: hPREP 0.6 nM, Z-Gly-Pro-amino-methylcoumarin 50 μM; read-out: PREP IC50
How it was run: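 Recombinant human PREP at 0.6 nM final with Z-Gly-Pro-AMC substrate at 50 μM final in Tris-HCl pH 7.5, NaCl, Triton X-100, glutathione; 15 min rt preincubation then 20 min rt reaction in dark. AMC fluorescence (ex 340/em 460 nm); IC50 from one-site dose-response fit of % inhibition.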

hFAP (M39-A757) = hFAP (M39-A757) (Homo sapiens (Human), UniProt Q12884); experiment: hFAP binding assay (surface plasmon resonance); details: SPR, 20° C.; for hFAP Binding assay k(off) / hFAP Binding assay k(on): single cycle kinetics; for Kd: n = 1 or geometric mean n = 2-4
Caco-2 cell permeability = details: human
Method: Caco-2 cell permeability was measured as described in Mol Pharm 2017, 14, 1601.

[5] = HLM CLint, n = 1 or average of n = 2-3
[6] = Solubility, kinetic solubility, n = 1 or average of n = 2-3

hFAP (M39-A757), sequence (Q12884 39-757): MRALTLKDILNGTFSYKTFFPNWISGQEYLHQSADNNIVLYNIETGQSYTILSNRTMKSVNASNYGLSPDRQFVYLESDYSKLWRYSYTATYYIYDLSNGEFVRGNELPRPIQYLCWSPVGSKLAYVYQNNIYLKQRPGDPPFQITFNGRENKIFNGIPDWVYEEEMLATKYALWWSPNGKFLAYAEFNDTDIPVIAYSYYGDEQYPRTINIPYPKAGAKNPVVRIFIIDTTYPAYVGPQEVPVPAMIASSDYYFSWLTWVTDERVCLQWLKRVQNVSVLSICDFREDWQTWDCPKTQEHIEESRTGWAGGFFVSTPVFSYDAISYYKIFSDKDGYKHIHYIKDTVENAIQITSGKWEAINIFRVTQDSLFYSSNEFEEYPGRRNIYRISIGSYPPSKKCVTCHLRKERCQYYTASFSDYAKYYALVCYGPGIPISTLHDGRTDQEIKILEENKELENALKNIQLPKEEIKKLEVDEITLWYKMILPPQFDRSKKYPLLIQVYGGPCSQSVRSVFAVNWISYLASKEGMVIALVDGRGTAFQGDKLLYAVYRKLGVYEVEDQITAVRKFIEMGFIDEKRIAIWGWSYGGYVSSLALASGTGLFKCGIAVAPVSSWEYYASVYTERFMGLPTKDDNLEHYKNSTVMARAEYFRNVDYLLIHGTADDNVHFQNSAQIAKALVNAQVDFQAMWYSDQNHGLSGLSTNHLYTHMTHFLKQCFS
human Fibroblast activation protein alpha (hFAP), sequence (Q12884 38-760): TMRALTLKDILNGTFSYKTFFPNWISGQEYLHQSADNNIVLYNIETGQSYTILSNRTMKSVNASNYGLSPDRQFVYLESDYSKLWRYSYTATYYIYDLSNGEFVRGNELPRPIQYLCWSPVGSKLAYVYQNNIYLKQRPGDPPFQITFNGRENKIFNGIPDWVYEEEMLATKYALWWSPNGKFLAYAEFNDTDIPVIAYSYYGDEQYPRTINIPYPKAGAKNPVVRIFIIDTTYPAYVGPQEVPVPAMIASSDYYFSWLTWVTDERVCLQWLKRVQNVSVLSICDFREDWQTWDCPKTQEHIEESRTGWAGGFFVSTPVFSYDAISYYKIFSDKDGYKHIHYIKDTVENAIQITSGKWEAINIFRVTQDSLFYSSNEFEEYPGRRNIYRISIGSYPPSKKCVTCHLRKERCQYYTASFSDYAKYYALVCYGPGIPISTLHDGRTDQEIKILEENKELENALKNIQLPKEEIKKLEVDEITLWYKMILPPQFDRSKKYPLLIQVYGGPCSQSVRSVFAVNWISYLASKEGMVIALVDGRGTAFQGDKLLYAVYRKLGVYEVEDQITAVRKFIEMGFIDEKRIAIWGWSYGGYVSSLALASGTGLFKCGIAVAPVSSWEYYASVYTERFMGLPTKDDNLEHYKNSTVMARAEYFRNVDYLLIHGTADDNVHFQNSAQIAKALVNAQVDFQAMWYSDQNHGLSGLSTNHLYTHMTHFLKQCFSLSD
Prolyl endopeptidase, Prolyl Oligopeptidase (hPREP), sequence (P48147 whole entry): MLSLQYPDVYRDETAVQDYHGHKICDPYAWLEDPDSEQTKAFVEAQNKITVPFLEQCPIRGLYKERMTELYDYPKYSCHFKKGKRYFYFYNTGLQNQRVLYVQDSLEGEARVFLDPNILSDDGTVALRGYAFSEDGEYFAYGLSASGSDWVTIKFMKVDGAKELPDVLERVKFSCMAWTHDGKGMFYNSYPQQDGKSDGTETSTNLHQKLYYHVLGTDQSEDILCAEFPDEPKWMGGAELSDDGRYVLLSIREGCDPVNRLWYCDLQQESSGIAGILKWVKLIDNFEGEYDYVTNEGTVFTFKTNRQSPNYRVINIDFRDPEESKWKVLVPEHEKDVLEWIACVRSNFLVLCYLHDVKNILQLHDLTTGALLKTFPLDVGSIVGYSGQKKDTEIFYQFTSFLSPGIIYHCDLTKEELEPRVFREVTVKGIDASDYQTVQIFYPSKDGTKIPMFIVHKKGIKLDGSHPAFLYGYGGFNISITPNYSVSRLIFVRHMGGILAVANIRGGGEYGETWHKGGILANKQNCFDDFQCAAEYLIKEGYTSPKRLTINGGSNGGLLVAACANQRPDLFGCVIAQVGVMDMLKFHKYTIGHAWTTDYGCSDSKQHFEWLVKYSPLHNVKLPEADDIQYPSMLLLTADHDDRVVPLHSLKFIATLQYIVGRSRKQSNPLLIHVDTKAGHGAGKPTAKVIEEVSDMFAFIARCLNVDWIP

| Structure (SMILES) | rHep CLint [1] [μL/min/1E6] | microsomal CLint [2, 5] [µL/min/mg] | solubility (Kinetic solubility; [6]) [µM] | IC50 [3] [nM] | IC50 [4] [nM] | hFAP Binding assay k(off) (hFAP (M39-A757)) [s⁻¹] | hFAP Binding assay k(on) (hFAP (M39-A757)) [M⁻¹ s⁻¹] | Kd (hFAP (M39-A757)) [nM] | Papp A→B (Caco-2 cell permeability) [×10⁻⁶ cm/s] | Papp B→A (Caco-2 cell permeability) [×10⁻⁶ cm/s] | efflux ratio (Caco-2 cell permeability) | microsomal CLint [2] [µL/min/mg] | solubility (Kinetic solubility) [µM] | Papp (Caco-2 cell permeability) [×10⁻⁶ cm/s] |
| --- | --- | --- | --- | --- | --- | --- | --- | --- | --- | --- | --- | --- | --- | --- |
| N#C[C@@H]1CSCN1C(=O)CNC(=O)c1ccnc2ccc(N3CCCCC3=O)cc12 [Example 14, (R)—N-(2-(4-Cyanothiazolidin-3-yl)-2-oxoethyl)-6-(2-oxopiperidin-1-yl)-quinoline-4-carboxamide] | <1 | < 3 | 830 (≈ 352 µg/mL) | 0.08 | 1200 | 0.000064 | 1300000 | 0.05 | 0.15 | 2.4 | 16 |  |  |  |
| CC1(C)CCN(c2ccc3nccc(C(=O)NCC(=O)N4CSC[C@H]4C#N)c3c2)C1=O [Example 12, (R)—N-(2-(4-Cyanothiazolidin-3-yl)-2-oxoethyl)-6-(3,3-dimethyl-2-oxopyrrolidin-1-yl)quinoline-4-carboxamide] | <1 | 6.4 | 830 (≈ 363 µg/mL) | 0.065 | 510 | 0.000064 | 1900000 | 0.038 | 0.29 | 19 | 65 |  |  |  |
| N#C[C@@H]1CSCN1C(=O)CNC(=O)c1ccnc2ccc(N3CCC4(CC3)COC4)cc12 [Example 229, (R)—N-(2-(4-cyanothiazolidin-3-yl)-2-oxoethyl)-6-(2-oxa-7-azaspiro[3.5]nonan-7-yl)quinoline-4-carboxamide] | 15 |  |  | 0.091 | 320 | 0.000026 | 2400000 | 0.01 | 22 | 32 |  | < 3 | > 1000 | 0.7 |
| N#C[C@@H]1CSCN1C(=O)CNC(=O)c1ccnc2ccc(N3C[C@H]4C[C@@H]3CO4)cc12 [Example 76, 6-((1R,4R)-2-Oxa-5-azabicyclo[2.2.1]heptan-5-yl)-N-(2-((R)-4-cyano-thiazolidin-3-yl)-2-oxoethyl)quinoline-4-carboxamide] | 3.5 | 4.2 | > 1000 | 0.08 | 510 | 0.000052 | 1000000 | 0.051 | 0.64 | 20 | 31 |  |  |  |
| N#C[C@@H]1CSCN1C(=O)CNC(=O)c1ccnc2ccc(N3CCOC(F)(F)C3)cc12 [Example 4, (R)—N-(2-(4-Cyanothiazolidin-3-yl)-2-oxoethyl)-6-(2,2-difluoromorpholino)-quinoline-4-carboxamide] | 14 | 50 | 55 (≈ 24.6 µg/mL) | 0.058 | 1100 | 0.000094 | 1200000 | 0.079 | 1.6 | 28 | 18 |  |  |  |
| CC(C)C1(O)CCN(c2ccc3nccc(C(=O)NCC(=O)N4CSC[C@H]4C#N)c3c2)CC1 [Example 192, (R)—N-(2-(4-Cyanothiazolidin-3-yl)-2-oxoethyl)-6-(4-hydroxy-4-isopropyl-piperidin-1-yl)quinoline-4-carboxamide] | 2.9 | 28 | 530 (≈ 248 µg/mL) | 0.051 | 200 | 0.000014 | 1300000 | 0.0077 | 0.51 | 39 | 76 |  |  |  |
| CCC1(O)CCN(c2ccc3nccc(C(=O)NCC(=O)N4CSC[C@H]4C#N)c3c2)CC1 [Example 189, (R)—N-(2-(4-Cyanothiazolidin-3-yl)-2-oxoethyl)-6-(4-ethyl-4-hydroxy-piperidin-1-yl)quinoline-4-carboxamide] | <1 | 11 | 840 (≈ 381 µg/mL) | 0.056 | 440 | 0.000051 | 2600000 | 0.02 | 0.29 | 13 | 46 |  |  |  |
| CC1(C(F)F)CN(c2ccc3nccc(C(=O)NCC(=O)N4CSC[C@H]4C#N)c3c2)C1 [Example 135, (R)—N-(2-(4-Cyanothiazolidin-3-yl)-2-oxoethyl)-6-(3-(difluoromethyl)-3-methylazetidin-1-yl)quinoline-4-carboxamide] | 6.8 | 23 | 310 (≈ 138 µg/mL) | 0.11 | 500 | 0.000023 | 1700000 | 0.013 | 4.4 | 29 | 6.5 |  |  |  |
| CC1(O)CCN(c2ccc3nccc(C(=O)NCC(=O)N4CSC[C@H]4C#N)c3c2)CC1 [Example 190, (R)—N-(2-(4-Cyanothiazolidin-3-yl)-2-oxoethyl)-6-(4-hydroxy-4-methyl-piperidin-1-yl)quinoline-4-carboxamide] | <1 | < 3 | > 1000 | 0.069 | 690 | 0.000036 | 1800000 | 0.02 | 0.32 | 7.6 | 24 |  |  |  |
| C[C@@H]1CN(c2ccc3nccc(C(=O)NCC(=O)N4CSC[C@H]4C#N)c3c2)C[C@H](C)[C@@H]1O [Example 7, N-(2-((R)-4-Cyanothiazolidin-3-yl)-2-oxoethyl)-6-((3S,4S,5R)-4-hydroxy-3,5-dimethylpiperidin-1-yl)quinoline-4-carboxamide] | 2.6 | 31 | > 1000 | 0.16 | 510 | 0.000075 | 740000 | 0.1 | 0.34 | 20 | 59 |  |  |  |
| CO[C@H]1CCN(c2ccc3nccc(C(=O)NCC(=O)N4CSC[C@H]4C#N)c3c2)C1 [Example 207, N-(2-((R)-4-Cyanothiazolidin-3-yl)-2-oxoethyl)-6-((S)-3-methoxy-pyrrolidin-1-yl)quinoline-4-carboxamide] | 1.4 | < 3 | 280 (≈ 119 µg/mL) | 0.17 | 430 | 0.000053 | 4600000 | 0.011 | 2.3 | 30 | 13 |  |  |  |
| C[C@H]1CCN(c2ccc3nccc(C(=O)NCC(=O)N4CSC[C@H]4C#N)c3c2)C1=O (single isomer, unassigned) [Example 201, N-(2-((R)-4-Cyanothiazolidin-3-yl)-2-oxoethyl)-6-((R*)-3-methyl-2-oxopyrrolidin-1-yl)quinoline-4-carboxamide] | <1 | < 3 | 90 (≈ 38.1 µg/mL) | < 0.025 | 610 | 0.00010 | 1800000 | 0.059 |  |  |  |  |  | 4.8 |
| CCC1(O)CN(c2ccc3nccc(C(=O)NCC(=O)N4CSC[C@H]4C#N)c3c2)C1 [Example 154, (R)—N-(2-(4-Cyanothiazolidin-3-yl)-2-oxoethyl)-6-(3-ethyl-3-hydroxy-azetidin-1-yl)quinoline-4-carboxamide] | 2.7 | < 3 | 850 (≈ 362 µg/mL) | 0.092 | 590 | 0.000054 | 910000 | 0.059 | 0.32 | 12 | 37 |  |  |  |
| N#C[C@@H]1CSCN1C(=O)CNC(=O)c1ccnc2ccc(N3CC(N4CCOCC4)C3)cc12 [Example 122, (R)—N-(2-(4-Cyanothiazolidin-3-yl)-2-oxoethyl)-6-(3-morpholinoazetidin-1-yl)quinoline-4-carboxamide] | <1 | < 3 | > 1000 | 0.049 | 840 | 0.000043 | 1300000 | 0.033 | 0.2 | 10 | 50 |  |  |  |
